In patent US11007200B2, “Cycloalkyl-diamines for the treatment of pain” (MediSynergics, LLC, priority 2019, dated 2021):
pKi: −log10 of the molar value. Where a name gives a salt, the structure may show the parent alone.

Assays:
[1] = target: Sigma-1; assay: Sigma-1 Ki determination (NIMH-PDSP); assay type: binding; details: standard drug haloperidol
Experimental: (§1) The compounds from the above Examples were tested for Sigma-1 and Sigma-2 activity. Ki determinations were generously provided by the National Institute of Mental Health's Psychoactive Drug Screening Program (PDSP), Contract #HHSN-272-2013-000017-C(NIMH-PDSP). The NIMH-PDSP is directed by Bryan L Roth MD, PhD at the University of North Carolina at Chapel Hill, N.C. and Project Officer Jamie Driscoll at NIMH, Bethesda, Md., USA. Procedures employed by the PDSP as described in the NIMH-PDSP Assay Protocol Book, Version II. The standard drug used in both Sigma subtype assays is haloperidol.

[2] = target: Sigma-2; assay: Sigma-2 Ki determination (NIMH-PDSP); assay type: binding; details: standard drug haloperidol
Experimental: as §1

| Structure (SMILES) | pKi [1] | pKi [2] |
| --- | --- | --- |
| CN[C@]1(c2ccccc2Cl)CCCC[C@H]1NCCCN1CCN(C)CC1 (relative stereo) [Example 13b, Trans-(1S,2R)-1-(2-chlorophenyl)-N^1-methyl-N^2-(3-(4-methylpiperazin-1-yl)propyl)cyclohexane-1,2-diamine tetrahydrochloride] | 6.84 | 6.36 |
| CN[C@]1(c2ccccc2Cl)CCCC[C@@H]1NCCCN1CCCC1 (relative stereo) [Example 2a, Cis-(1S,2S)-1-(2-chlorophenyl)-N^1-methyl-N^2-[3-(pyrrolidin-1-yl)propyl]-cyclohexane-1,2-diamine trihydrochloride] | 7.76 | 7.22 |
| CN[C@]1(c2ccccc2Cl)CCCC[C@H]1NCCCc1ccccc1 (relative stereo) [Example 4b, Trans-(1S,2R)-1-(2-chlorophenyl)-N^1-methyl-N^2-(3-phenylpropyl)cyclohexane-1,2-diamine dihydrochloride] | 6.16 | 6.37 |
| CN[C@]1(c2ccccc2Cl)CCCC[C@@H]1NCCCc1ccccc1 (relative stereo) [Example 4a, Cis-(1S,2S)-1-(2-chlorophenyl)-N^1-methyl-N^2-(3-phenylpropyl)cyclohexane-1,2-diamine dihydrochloride] | 7.01 | 7.81 |
| CN[C@]1(c2ccccc2Cl)CCCC[C@@H]1NCCCN1CCN(C)CC1 (relative stereo) [Example 13a, Cis-(1S,2S)-1-(2-chlorophenyl)-N^1-methyl-N^2-(3-(4-methylpiperazin-1-yl)propyl)cyclohexane-1,2-diamine tetrahydrochloride] | 7.15 | 7.01 |
| CN[C@]1(c2ccccc2Cl)CCCC[C@@H]1NCCCc1ccc(F)cc1 (relative stereo) [Example 3a, Cis-(1S,2S)-1-(2-chlorophenyl)-N^2-[3-(4-fluorophenyl)propyl]-N^1-methyl-cyclohexane-1,2-diamine dihydrochloride] | 7.45 | 7.74 |
| CN[C@]1(c2ccccc2Cl)CCCC[C@H]1NCCCc1ccc(F)cc1 (relative stereo) [Example 3b, Trans-(1S,2R)-1-(2-chlorophenyl)-N^2-[3-(4-fluorophenyl)propyl]-N^1-methyl-cyclohexane-1,2-diamine dihydrochloride] | 6.66 | 6.17 |
| CN[C@]1(c2ccccc2Cl)CCCC[C@H]1NCCCN1CCCC1 (relative stereo) [Example 2b, Trans-(1S,2R)-1-(2-chlorophenyl)-N^1-methyl-N^2-[3-(pyrrolidin-1-yl)propyl]-cyclohexane-1,2-diamine trihydrochloride] | 7.43 | 6.52 |
